Results on 18 molecules are retold here after US20250144067A1, “PERSONALIZED STARVATION THERAPY FOR CANCER” (Faeth Therapeutics, Inc., priority 2021, published 2025).

Counter-ions that a name gives are not always drawn.

The test system of experiment [1] is NCI-H292 lung cancer cells. In words: FDA drug screening, complete media vs cholesterol-free media with simvastatin (TABLE 2). The format is cell-based, human. The following applies: for Cholesterol-free media + simvastatin (0.04 μM) / Complete Media: NCI-H292 cells.
The test system of experiment [2] is NCI-H292 lung cancer cells. In words: FDA drug screening, complete media vs cholesterol-free media without statin (TABLE 1). The experiment is classed as cell-based, human.
Where [3] appears, read: FDA drug library screen, cholesterol-free media with simvastatin 0.04 μM.
The mark [4] stands for this setting: FDA drug library screen, complete media.
Where [5] appears, read: complete media vs cholesterol-free media + simvastatin (0.04 μM), >0 enhanced anti-cancer activity, about 0 neutral, <0 antagonist.
[6] abbreviates: NCI-H292 cells, cholesterol-free media without statin, FDA drug library screen.
[7] abbreviates: complete vs cholesterol-free media, >0 enhanced anti-cancer activity, about 0 neutral, <0 antagonist.
[8] abbreviates: FDA library drug in cholesterol-free media with simvastatin 0.04 μM.
Setting [9] is: FDA library drug in complete media.
[10] abbreviates: Complete minus Cholesterol-free, >0 enhanced anti-cancer activity, about 0 neutral, <0 antagonist.
Setting [11] is: NCI-H292 cells, cholesterol-free media without statin.
Where [12] appears, read: Complete minus Cholesterol-free, greater than 0 enhanced anti-cancer activity, about 0 neutral, below 0 antagonists.
[13] abbreviates: NCI-H292 cells in cholesterol-free media without statin.
Setting [14] is: NCI-H292 cells in complete media.
[15] abbreviates: cholesterol-free media with simvastatin 0.04 μM, cell growth value in FDA drug screen.
The mark [16] stands for this setting: complete media, cell growth value in FDA drug screen.
Where [17] appears, read: complete media minus cholesterol-free media + simvastatin, >0 enhanced anti-cancer activity, about 0 neutral, <0 antagonist.
The mark [18] stands for this setting: complete vs cholesterol-free media, greater than 0 enhanced anti-cancer activity, about 0 neutral, below 0 antagonists.
Setting [19] is: NCI-H292 cells, complete media, FDA drug library screen.
[20] abbreviates: cholesterol-free media with simvastatin 0.04 μM, FDA drug library screen (TABLE 2).
The mark [21] stands for this setting: complete media, FDA drug library screen (TABLE 2).
[22] abbreviates: complete media minus cholesterol-free media + simvastatin (0.04 μM), […].
Where [23] appears, read: complete vs cholesterol-free media, […].
Setting [24] is: Complete minus Cholesterol-free, […].
[25] abbreviates: complete media minus cholesterol-free media + simvastatin, […].
The mark [26] stands for this setting: complete media minus cholesterol-free media + simvastatin (0.04 μM), >0 enhanced anti-cancer activity, about 0 neutral, <0 antagonist.

As to `Oc1c(I)cc(Cl)c2cccnc12` [Clioquinol], the “Cholesterol-free media + simvastatin (0.04 μM)” value in experiment [1] (setting [3]) was determined as 1.168. The “Complete Media” value in experiment [1] (setting [4]) was determined as 1.009. Moreover, the Difference in experiment [1] (setting [5]) was −0.16; in experiment [2] (setting [7]), 0.57. This molecule also came in with a Cholesterol-free in experiment [2] (setting [6]) of 0.6089.

With `COc1cc(Nc2ncc(F)c(Nc3ccc4c(n3)N(COP(=O)(O)O)C(=O)C(C)(C)O4)n2)cc(OC)c1OC` [Fostamatinib], the “Cholesterol-free media + simvastatin (0.04 μM)” value in experiment [1] (setting [8]) is 1.406. Further, in experiment [1] (setting [9]), the “Complete Media” value is 1.042. Besides, the Difference is −0.36 in experiment [1] (setting [5]) and −0.29 in experiment [2] (setting [10]). Also, in experiment [2] (setting [11]), the Cholesterol-free was determined as 0.7013. In experiment [2] (NCI-H292 cells, complete media), this molecule displayed a Complete of 0.4125.

On to `C[C@H](CCC(=O)O)[C@H]1CC[C@H]2[C@@H]3CC[C@@H]4C[C@H](O)CC[C@]4(C)[C@H]3C[C@H](O)[C@]12C` [Deoxycholic acid], for which, in experiment [1] (setting [8]), the “Cholesterol-free media + simvastatin (0.04 μM)” value was found to be 1.379. In addition, the “Complete Media” value in experiment [1] (setting [9]) is 0.931. Besides, the Difference in experiment [1] (setting [5]) is −0.45; in experiment [2] (setting [12]) it was −0.65. Further, in experiment [2] (setting [13]), the Cholesterol-free is recorded as 1.683. The same molecule showed a Complete in experiment [2] (setting [14]) of 1.028.

On to `COc1ccnc(C[S+]([O-])c2nc3cc(-n4cccc4)ccc3[nH]2)c1C` (stereo not shown) [Ilaprazole (sodium)], for which, in experiment [1] (setting [15]), the “Cholesterol-free media + simvastatin (0.04 μM)” value was 1.333. Moreover, the “Complete Media” value in experiment [1] (setting [16]) is recorded as 1.428. The Difference in experiment [1] (setting [17]) was 0.10; in experiment [2] (setting [18]), −0.38. The molecule further showed a Cholesterol-free in experiment [2] (setting [11]) of 1.162. The Complete in experiment [2] (NCI-H292 cells, complete media) is 0.7783.

As for `CN(CCOc1ccc(CC2SC(=O)NC2=O)cc1)c1ccccn1.O=C(O)/C=C\C(=O)O` (stereo not shown) [Rosiglitazone (maleate)], in experiment [1] (setting [15]), the “Cholesterol-free media + simvastatin (0.04 μM)” value is 0.848. Moreover, the “Complete Media” value in experiment [1] (setting [16]) is reported as 0.8943. Moreover, the Difference came out at 0.05 in experiment [1] (setting [17]) and 0.32 in experiment [2] (setting [7]). The molecule further yielded a Cholesterol-free in experiment [2] (setting [6]) of 1.107. This molecule yielded a Complete in experiment [2] (setting [19]) of 1.422.

For `CN1CCN(c2c(F)cc3c(=O)c(C(=O)O)cn4c3c2SCC4)CC1` [Rufloxacin hydrochloride], the “Cholesterol-free media + simvastatin (0.04 μM)” value in experiment [1] (setting [3]) stood at 0.949. Moreover, the “Complete Media” value in experiment [1] (setting [4]) was found to be 1.098. The Difference in experiment [1] (setting [17]) was 0.15; in experiment [2] (setting [10]), −0.28. The Cholesterol-free in experiment [2] (setting [11]) is 1.291. The molecule further gave a Complete in experiment [2] (NCI-H292 cells, complete media) of 1.016.

For the molecule `Cc1ccc([C@@H]2O[C@H](CO)[C@@H](O)[C@H](O)[C@H]2O)cc1Cc1ccc(-c2ccc(F)cc2)s1` [Canagliflozin], in experiment [1] (setting [20]), the “Cholesterol-free media + simvastatin (0.04 μM)” value is given as 1.109. Also, in experiment [1] (setting [21]), the “Complete Media” value is listed as 1.104. Further, the values for the Difference in experiment [1] (setting [22]) and in experiment [2] (setting [23]) were −0.01 and −0.34, respectively. The Cholesterol-free in experiment [2] (setting [11]) is listed as 1.159. The Complete in experiment [2] (NCI-H292 cells, complete media) turned out to be 0.8206.

Regarding `CC(O)C(=O)O.CCOc1ccc2nc3cc(N)ccc3c(N)c2c1` [Ethacridine (lactate)], the “Cholesterol-free media + simvastatin (0.04 μM)” value in experiment [1] (setting [3]) turned out to be 0.2653. Besides, the “Complete Media” value in experiment [1] (setting [4]) is on record as 0.1668. The Difference in experiment [1] (complete media vs cholesterol-free media + simvastatin (0.04 μM), […]) was −0.10; in experiment [2] (setting [24]) it was −0.28. The same molecule displayed a Cholesterol-free in experiment [2] (setting [11]) of 0.3206. The molecule also returned a Complete in experiment [2] (NCI-H292 cells, complete media) of 0.04483.

On to `C#CC1(O)CC[C@H]2[C@@H]3CCC4=CC(=O)CC[C@@H]4[C@H]3CC[C@@]21CC` (stereo partly shown) [Norgestrel], for which the “Cholesterol-free media + simvastatin (0.04 μM)” value in experiment [1] (setting [8]) came to 1.456. In addition, the “Complete Media” value in experiment [1] (setting [9]) came out at 1.004. Also, the Difference in experiment [1] (setting [5]) was −0.45; in experiment [2] (setting [18]), −0.33. This molecule showed a Cholesterol-free in experiment [2] (setting [11]) of 1.349. In experiment [2] (NCI-H292 cells, complete media), this molecule returned a Complete of 1.022.

As for `COc1cccc2c1C(=O)c1c(O)c3c(c(O)c1C2=O)C[C@@](O)(C(C)=O)C[C@@H]3O[C@H]1C[C@H](N)[C@H](O)[C@H](C)O1` [Daunorubicin (Hydrochloride)], the “Cholesterol-free media + simvastatin (0.04 μM)” value in experiment [1] (setting [20]) was found to be 0.006543. In addition, in experiment [1] (setting [21]), the “Complete Media” value is listed as −0.007495. Further, the Difference in experiment [1] (setting [22]) and in experiment [2] (setting [24]) was −0.01 in each case. The same molecule gave a Cholesterol-free in experiment [2] (setting [6]) of 0.01433. The Complete in experiment [2] (setting [19]) is given as 0.008412.

With Fesoterodine (fumarate), in experiment [1] (setting [3]), the “Cholesterol-free media + simvastatin (0.04 μM)” value turned out to be 0.9771. Besides, in experiment [1] (setting [4]), the “Complete Media” value worked out at 1.278. Also, the Difference is listed as 0.30 in experiment [1] (setting [25]) and −0.24 in experiment [2] (setting [24]). In experiment [2] (setting [11]), this molecule yielded a Cholesterol-free of 1.247. Moreover, the Complete in experiment [2] (NCI-H292 cells, complete media) was 1.003.

For `C[C@]12CC[C@@H]3c4ccc(O)cc4C[C@@H](CCCCCCCCC[S+]([O-])CCCC(F)(F)C(F)(F)F)[C@H]3[C@@H]1CC[C@@H]2O` (stereo partly shown) [Fulvestrant], the “Cholesterol-free media + simvastatin (0.04 μM)” value in experiment [1] (setting [3]) is given as 1.051. In experiment [1] (setting [4]), the “Complete Media” value is recorded as 0.9579. In addition, the Difference is given as −0.09 in experiment [1] (setting [5]) and −0.29 in experiment [2] (setting [10]). In addition, the Cholesterol-free in experiment [2] (setting [11]) was found to be 1.364. This molecule yielded a Complete in experiment [2] (NCI-H292 cells, complete media) of 1.074.

Consider `CC1=C(C(=O)O)N2C(=O)[C@@H](NC(=O)[C@H](N)c3ccc(O)cc3)[C@H]2SC1` [Cefadroxil], for which, in experiment [1] (setting [3]), the “Cholesterol-free media + simvastatin (0.04 μM)” value stood at 1.041. Besides, in experiment [1] (setting [4]), the “Complete Media” value is recorded as 1.588. The results for the Difference in experiment [1] (setting [17]) and in experiment [2] (setting [7]) were 0.55 and 0.26, respectively. In experiment [2] (setting [6]), this molecule had a Cholesterol-free of 1.424. Further, the Complete in experiment [2] (setting [19]) is recorded as 1.685.

For the molecule `CNCC(=O)N[C@@H](CCCN=C(N)N)C(=O)N[C@H](C(=O)N[C@@H](Cc1ccc(O)cc1)C(=O)N[C@H](C(=O)N[C@@H](Cc1cnc[nH]1)C(=O)N1CCC[C@H]1C(=O)N[C@@H](C)C(=O)O)C(C)C)C(C)C` [Saralasin (TFA)], the “Cholesterol-free media + simvastatin (0.04 μM)” value in experiment [1] (cholesterol-free media with simvastatin 0.04 μM, […]) is on record as 0.7862. Besides, in experiment [1] (complete media, […]), the “Complete Media” value turned out to be 0.8195. The results for the Difference in experiment [1] (setting [25]) and in experiment [2] (setting [23]) were 0.03 and 0.29, respectively. In experiment [2] (setting [6]), the Cholesterol-free is listed as 1.11. In experiment [2] (setting [19]), this molecule registered a Complete of 1.396.

Consider `Cc1[nH]c2ccccc2c1CCNCc1ccc(/C=C/C(=O)NO)cc1` [Panobinostat], for which the “Cholesterol-free media + simvastatin (0.04 μM)” value in experiment [1] (setting [20]) worked out at 0.008426. The “Complete Media” value in experiment [1] (setting [21]) is −0.004725. Also, the Difference in experiment [1] (setting [26]) is recorded as −0.01; in experiment [2] (setting [10]), −0.03. In experiment [2] (setting [6]), the Cholesterol-free is given as −0.004474. Besides, the Complete in experiment [2] (setting [19]) was −0.02997.

Regarding Indinavir (sulfate), the “Cholesterol-free media + simvastatin (0.04 μM)” value in experiment [1] (setting [20]) is recorded as 0.8636. Further, the Difference in experiment [1] (setting [26]) is reported as 0.01; in experiment [2] (setting [12]), −0.65. Moreover, the Cholesterol-free in experiment [2] (setting [13]) is 1.599. Moreover, the Complete in experiment [2] (setting [14]) was found to be 0.946.

Regarding `Cn1nnnc1SCC1=C(C(=O)[O-])N2C(=O)[C@@H](NC(=O)[C@H](O)c3ccccc3)[C@H]2SC1.[Na+]` [Cefamandole (sodium)], in experiment [1] (setting [8]), the “Cholesterol-free media + simvastatin (0.04 μM)” value is 2.169. Also, the “Complete Media” value in experiment [1] (setting [9]) was 1.429. Besides, the Difference is recorded as −0.74 in experiment [1] (setting [5]) and −0.12 in experiment [2] (Complete minus Cholesterol-free, greater than 0 enhanced anti-cancer activity, about 0 neutral, below 0 antagonist). The Cholesterol-free in experiment [2] (NCI-H292 cells, FDA drug library screen, cholesterol-free media without statin) was 1.243. In experiment [2] (NCI-H292 cells, FDA drug library screen, complete media), this molecule returned a Complete of 1.12.

`Cc1ccc(S(=O)(=O)NC(=O)NN2CCCCCC2)cc1` [Tolazamide]: in experiment [1] (setting [15]), the “Cholesterol-free media + simvastatin (0.04 μM)” value was 1.047. In addition, the “Complete Media” value in experiment [1] (setting [16]) turned out to be 1.177. The values for the Difference in experiment [1] (setting [17]) and in experiment [2] (setting [12]) were 0.13 and −0.50, respectively. The same molecule had a Cholesterol-free in experiment [2] (setting [13]) of 1.412. Further, the Complete in experiment [2] (setting [14]) amounted to 0.9106.
